In the supplement of paper PMC11208160:

Test: recombinant UMI read abundance after kanamycin selection (control-corrected) (log10(CPM+1)); higher = more efficient recombination; extreme values may be limits of the assay; sequences stand for … in AGTGCAGAGAAAATCGGCCAGTTTTCTCTGCCTGCAGTCCGCATGCCGTGGGACCCCTTGGGTTCTAACCTGTTGCCTAGATTTATGCAGCGGACTGCCTTTCTCCCAAAGTGATAAACCGG…AGGTTGGTTTCACT; site = the 11-nt donor
Summary of the method: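 For the IS621 bridge recombinase, a pooled Escherichia coli screen tested donor and donor-binding-loop pairs. Cells received the pair library together with a target plasmid encoding a fixed target and T7-inducible recombinase, then went onto IPTG (0.07 mM) plus kanamycin or unselected plates in duplicate. After PCR across the donor–target junction and sequencing, recombinant UMI counts were normalized to CPM, averaged, and scaled by control-derived factors. Each value is given as log10(CPM+1).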
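Further: IS621 bridge recombinase in Escherichia coli cells against a fixed T5 target plasmid.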

**Q.** With “GGGTTCCCATGGACCGGTTTTCCCGGTAATCCGTATTTGTG (site AGGTTCCCTCA)” as the sequence, how does the “recombinant UMI read abundance (log10)” value read?
**A.** 0.00854

**Q.** Which “recombinant UMI read abundance (log10)” value does the source give for “GGGTTCCCATGGACCGGTTTTCCCGGTAATCCGTATTTGTG (site CGGTTCCCTCA)” here?
**A.** 0.0144

**Q.** With “GGGTTCCCATGGACCGGTTTTCCCGGTAATCCGTATTTGTG (site GGGTTCCCTCA)” as the sequence, how does the “recombinant UMI read abundance (log10)” value read?
**A.** 0.00899

**Q.** With “GGGTTCCCATGGACCGGTTTTCCCGGTAATCCGTATTTGTG (site TGGTTCCCTCA)” as the sequence, how does the “recombinant UMI read abundance (log10)” value read?
**A.** 0.0194

**Q.** Which “recombinant UMI read abundance (log10)” value does the source give for “GGTAAACCATGGACCGGTTTTCCCGGTAATCCGTATTTGAT (site GGTAAACCTAT)” here?
**A.** 0

**Q.** With “GGTAAGCCATGGACCGGTTTTCCCGGTAATCCGTATTTGGG (site GGTAAGCCTCC)” as the sequence, how does the “recombinant UMI read abundance (log10)” value read?
**A.** 0.023

**Q.** For “GGTACAACATGGACCGGTTTTCCCGGTAATCCGTATTTGTA (site GGTACAACTTA)”, which “recombinant UMI read abundance (log10)” value is on record?
**A.** 0.0152

**Q.** With “GGTACAACATGGACCGGTTTTCCCGGTAATCCGTATTTGTA (site GGTCCAACTTA)” as the sequence, how does the “recombinant UMI read abundance (log10)” value read?
**A.** 0.00335

**Q.** With “GGTACAACATGGACCGGTTTTCCCGGTAATCCGTATTTGTA (site GGTGCAACTTA)” as the sequence, how does the “recombinant UMI read abundance (log10)” value read?
**A.** 0.0119

**Q.** For “GGTACAACATGGACCGGTTTTCCCGGTAATCCGTATTTGTA (site GGTTCAACTTA)”, which “recombinant UMI read abundance (log10)” value is on record?
**A.** 0.0127

**Q.** For “GGTACGCCATGGACCGGTTTTCCCGGTAATCCGTATTTGTT (site GGTACGACTAA)”, which “recombinant UMI read abundance (log10)” value is on record?
**A.** 0.0526

**Q.** Which “recombinant UMI read abundance (log10)” value does the source give for “GGTACGCCATGGACCGGTTTTCCCGGTAATCCGTATTTGTT (site GGTACGCCTAA)” here?
**A.** 0.0149

**Q.** For “GGTACGCCATGGACCGGTTTTCCCGGTAATCCGTATTTGTT (site GGTACGGCTAA)”, which “recombinant UMI read abundance (log10)” value is on record?
**A.** 0.0123

**Q.** Which “recombinant UMI read abundance (log10)” value does the source give for “GGTACGCCATGGACCGGTTTTCCCGGTAATCCGTATTTGTT (site GGTACGTCTAA)” here?
**A.** 0.426

**Q.** With “GGTACGTCATGGACCGGTTTTCCCGGTAATCCGTATTTGAT (site GGTACGTCTAA)” as the sequence, how does the “recombinant UMI read abundance (log10)” value read?
**A.** 0.0132

**Q.** Which “recombinant UMI read abundance (log10)” value does the source give for “GGTACGTCATGGACCGGTTTTCCCGGTAATCCGTATTTGAT (site GGTACGTCTAC)” here?
**A.** 0.00659

**Q.** Which “recombinant UMI read abundance (log10)” value does the source give for “GGTACGTCATGGACCGGTTTTCCCGGTAATCCGTATTTGAT (site GGTACGTCTAG)” here?
**A.** 0

**Q.** For “GGTACGTCATGGACCGGTTTTCCCGGTAATCCGTATTTGAT (site GGTACGTCTAT)”, which “recombinant UMI read abundance (log10)” value is on record?
**A.** 0.46

**Q.** With “GGTACGTCATGGACCGGTTTTCCCGGTAATCCGTATTTGTA (site GGTACGTCTAA)” as the sequence, how does the “recombinant UMI read abundance (log10)” value read?
**A.** 0.0713

**Q.** With “GGTACGTCATGGACCGGTTTTCCCGGTAATCCGTATTTGTA (site GGTACGTCTCA)” as the sequence, how does the “recombinant UMI read abundance (log10)” value read?
**A.** 0.00737

**Q.** With “GGTACGTCATGGACCGGTTTTCCCGGTAATCCGTATTTGTA (site GGTACGTCTGA)” as the sequence, how does the “recombinant UMI read abundance (log10)” value read?
**A.** 0

**Q.** With “GGTACGTCATGGACCGGTTTTCCCGGTAATCCGTATTTGTA (site GGTACGTCTTA)” as the sequence, how does the “recombinant UMI read abundance (log10)” value read?
**A.** 0.651

**Q.** With “GGTACTGCATGGACCGGTTTTCCCGGTAATCCGTATTTGCC (site GATACTGCTGG)” as the sequence, how does the “recombinant UMI read abundance (log10)” value read?
**A.** 0

**Q.** With “GGTACTGCATGGACCGGTTTTCCCGGTAATCCGTATTTGCC (site GCTACTGCTGG)” as the sequence, how does the “recombinant UMI read abundance (log10)” value read?
**A.** 0.662

**Q.** Which “recombinant UMI read abundance (log10)” value does the source give for “GGTACTGCATGGACCGGTTTTCCCGGTAATCCGTATTTGCC (site GGTACTGCTGG)” here?
**A.** 1.58

**Q.** Which “recombinant UMI read abundance (log10)” value does the source give for “GGTACTGCATGGACCGGTTTTCCCGGTAATCCGTATTTGCC (site GTTACTGCTGG)” here?
**A.** 0

**Q.** Which “recombinant UMI read abundance (log10)” value does the source give for “GGTATGTCATGGACCGGTTTTCCCGGTAATCCGTATTTGTT (site GGTAAGTCTAA)” here?
**A.** 0.00575

**Q.** With “GGTATGTCATGGACCGGTTTTCCCGGTAATCCGTATTTGTT (site GGTACGTCTAA)” as the sequence, how does the “recombinant UMI read abundance (log10)” value read?
**A.** 0.0321

**Q.** For “GGTATGTCATGGACCGGTTTTCCCGGTAATCCGTATTTGTT (site GGTAGGTCTAA)”, which “recombinant UMI read abundance (log10)” value is on record?
**A.** 0.00327
